Reference: US20070010565A1, “New thiazolidinones without basic nitrogen, their production and use as pharmaceutical agents” (priority 2005, published 2007)

Key:
[1] = molecular target: T1, Recombinant human Plk-1 (6×His) (Homo sapiens, UniProt P53350); experiment: PLK enzyme assay; assay type: biochemical; conditions: biotinylated casein and 33P-γ-ATP substrate, 90 minutes at room temperature, SPA beads; read-out: PLK-1 IC50 [nM] Inhibition
T1 construct: 6xHis; made in house; host or cells: baculovirus-infected insect cells (Hi5)
Procedure: Recombinant human Plk-1 (6×His) was purified from baculovirus-infected insect cells (Hi5).
10 ng of (produced in a recombinant manner and purified) PLK enzyme is incubated for 90 minutes at room temperature with biotinylated casein and 33P-γ-ATP as a substrate in a volume of 15 μl in 384-well Greiner small-volume microtiter plates (final concentrations in the buffer: 660 ng/ml of PLK; 0.7 μmol of casein, 0.5 μmol of ATP incl. 400 nCi/ml of 33P-γ-ATP; 10 mmol of MgCl2, 1 mmol of MnCI2; 0.01% NP40; 1 mmol of DTT, protease inhibitors; 0.1 mmol of Na2VO3 in 50 mmol of HEPES, pH 7.5). To complete the reaction, 5 μl of stop solution (500 μmol of ATP; 500 mmol of EDTA; 1% Triton X100; 100 mg/ml of streptavidin-coated SPA beads in PBS) is added. After the microtiter plate is sealed by film, the beads are sedimented by centrifuging (10 minutes, 1500 rpm). The incorporation of 33P-γ-ATP in casein is intended as a measurement of enzyme activity by β-counting.
Test substances are used in various concentrations (0 μmol, as well as in the range of 0.01-30 μmol). The final concentration of the solvent dimethyl sulfoxide is 1.5% in all batches.

[2] = test system: human MaTu breast tumour cells; experiment: Proliferation assay (crystal violet); assay type: cell-based; conditions: 96 h, 4 days incubation, read-out: Inhibition of the Tumour Cell Proliferation (MaTu) IC50
Procedure: Cultivated human MaTu breast tumour cells were flattened out at a density of 5000 cells/measuring point in a 96-well multititer plate in 200 μl of the corresponding growth medium. After 24 hours, the cells of one plate (zero-point plate) were colored with crystal violet (see below), while the medium of the other plates was replaced by fresh culture medium (200 μl), to which the test substances were added at various concentrations (0 μm, as well as in the range of 0.01-30 μm; the final concentration of the solvent dimethyl sulfoxide was 0.5%). The cells were incubated for 4 days in the presence of test substances. The cell proliferation was determined by coloring the cells with crystal violet: the cells were fixed by adding 20 μl/measuring point of an 11% glutaric aldehyde solution for 15 minutes at room temperature. After three washing cycles of the fixed cells with water, the plates were dried at room temperature. The cells were colored by adding 100 μl/measuring point of a 0.1% crystal violet solution (pH was set at 3 by adding acetic acid). […] The extinction was determined by photometry at a wavelength of 595 nm. The change of cell growth, in percent, was calculated by standardization of the measured values to the extinction values of the zero-point plate (=0%) and the extinction of the untreated (0 μm) cells (=100%).

T1 sequence (P53350 whole entry): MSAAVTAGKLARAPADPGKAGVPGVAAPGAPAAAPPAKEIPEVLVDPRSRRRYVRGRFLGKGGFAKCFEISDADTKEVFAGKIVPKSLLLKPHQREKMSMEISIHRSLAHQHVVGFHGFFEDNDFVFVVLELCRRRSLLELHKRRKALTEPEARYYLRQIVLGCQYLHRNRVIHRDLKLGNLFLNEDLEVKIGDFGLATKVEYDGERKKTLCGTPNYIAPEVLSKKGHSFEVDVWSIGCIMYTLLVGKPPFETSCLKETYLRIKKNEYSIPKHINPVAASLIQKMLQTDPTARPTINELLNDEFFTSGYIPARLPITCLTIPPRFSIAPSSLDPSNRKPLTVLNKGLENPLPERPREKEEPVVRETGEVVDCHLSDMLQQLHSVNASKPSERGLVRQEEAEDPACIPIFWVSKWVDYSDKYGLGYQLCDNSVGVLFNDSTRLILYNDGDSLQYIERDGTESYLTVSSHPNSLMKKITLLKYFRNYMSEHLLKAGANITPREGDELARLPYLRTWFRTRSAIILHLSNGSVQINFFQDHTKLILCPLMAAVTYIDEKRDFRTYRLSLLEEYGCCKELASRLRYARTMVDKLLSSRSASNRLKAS

IC50 [1] | IC50 [2] | Compound
230 nM |  | CCNC(=O)/C(C#N)=c1\sc(=Cc2ccc(O)cc2)c(=O)n1CC [Example 3]
39 nM | 3200 nM | C#CCNC(=O)/C(C#N)=c1\sc(=Cc2ccc(O)cc2)c(=O)n1CC [Example 8]
23 nM |  | C#CCNC(=O)/C(C#N)=c1\sc(=Cc2ccc(N3CCCC3)cc2)c(=O)n1CC [Example 10]
